Measurements taken from ChEMBL document CHEMBL3046660, “Synthesis, cytotoxic, and DNA binding studies of novel fluorinated condensed pyrano pyrazoles” (Med Chem Res, 2013).
Active and inactive are the calls of the source. No cut-off for these calls is given here.

Experiments:
MRC5 = assay: Cytotoxicity against Homo sapiens (human) MRC5 cells assessed as inhibition of cell viability by MTT assay; type: cell-based
HeLa = assay: Cytotoxicity against Homo sapiens (human) HeLa cells assessed as inhibition of cell viability by MTT assay; type: functional, cell-based
A549 = assay: Cytotoxicity against Homo sapiens (human) A549 cells assessed as inhibition of cell viability by MTT assay; type: functional, cell-based
[1] = Binding affinity to DNA assessed as peak current at 1 mM at potential of 1.3 V by cyclic voltammetry
[2] = Binding affinity to DNA assessed as peak current at 1 mM at potential of 0.45 V by cyclic voltammetry
[3] = Binding affinity to DNA assessed as peak current at 1 mM measured at potential of 1.3 V at 3 hr after drug addition by cyclic voltammetry in presence of 3 mM cytosine
[4] = Binding affinity to DNA assessed as peak current at 1 mM measured at potential of 0.45 V at 3 hr after drug addition by cyclic voltammetry in presence of 3 mM cytosine
[5] = Binding affinity to DNA assessed as peak current at 1 mM measured at potential of 1.3 V at 30 min after drug addition by cyclic voltammetry in presence of 1 mM cytosine
[6] = Binding affinity to DNA assessed as peak current at 1 mM measured at potential of 1.3 V immediately after drug addition by cyclic voltammetry in presence of 1 mM cytosine
[7] = Binding affinity to DNA assessed as peak current at 1 mM measured at potential of 0.45 V immediately after drug addition by cyclic voltammetry in presence of 1 mM cytosine

| Activity [1] | Activity [2] | Activity [3] | Activity [4] | Activity [5] | Activity [6] | Activity [7] | Compound | IC50 (MRC5) [µM] | IC50 (HeLa) [µM] | IC50 (A549) [µM] |
| --- | --- | --- | --- | --- | --- | --- | --- | --- | --- | --- |
| – | – | – | – | – | – | – | N#CC1=C(N)Oc2c(c(C(F)(F)F)nn2-c2ccccc2)C1c1cccs1 (stereo not given) | > 100 | 74.1 | 75.5 |
| – | – | – | – | – | – | – | N#CC1=C(N)Oc2c(c(C(F)(F)F)nn2-c2ccc(F)cc2)C1c1ccc([N+](=O)[O-])cc1 (stereo not given) | > 100 | > 100 | > 100 |
| – | – | – | – | – | – | – | COc1ccc(C2C(C#N)=C(N)Oc3c2c(C(F)(F)F)nn3-c2cccc(Cl)c2)cc1 (stereo not given) | > 100 | > 100 | 89.4 |
| – | – | – | – | – | – | – | N#CC1=C(N)Oc2c(c(C(F)(F)F)nn2-c2ccccc2)C1c1ccc([N+](=O)[O-])cc1 (stereo not given) | > 100 | > 100 | > 100 |
| – | – | – | – | – | – | – | COc1cccc(C2C(C#N)=C(N)Oc3c2c(C(F)(F)F)nn3-c2ccccc2)c1 (stereo not given) | > 100 | > 100 | > 100 |
| – | – | – | – | – | – | – | N#CC1=C(N)Oc2c(c(C(F)(F)F)nn2-c2ccccc2)C1c1ccco1 (stereo not given) | > 100 | > 100 | > 100 |
| – | – | – | – | – | – | – | N#CC1=C(N)Oc2c(c(C(F)(F)F)nn2-c2cccc(Cl)c2)C1c1ccc([N+](=O)[O-])cc1 (stereo not given) | > 100 | > 100 | > 100 |
| – | – | – | – | – | – | – | N#CC1=C(N)Oc2c(c(C(F)(F)F)nn2-c2ccc(F)cc2)C1c1cccs1 (stereo not given) | > 100 | > 100 | > 100 |
| Active | Active | inactive | Active | Active | inactive | Active | COc1ccc(C2C(C#N)=C(N)Oc3c2c(C(F)(F)F)nn3-c2ccc(F)cc2)cc1 (stereo not given) | > 100 | > 100 | 10.3 |
| – | – | – | – | – | – | – | Cc1ccc(C2C(C#N)=C(N)Oc3c2c(C(F)(F)F)nn3-c2ccc(F)cc2)cc1 (stereo not given) | > 100 | > 100 | > 100 |
| – | – | – | – | – | – | – | N#CC1=C(N)Oc2c(c(C(F)(F)F)nn2-c2cccc(Cl)c2)C1c1ccco1 (stereo not given) | > 100 | > 100 | > 100 |
